Measured values: paper PMC7849553 (Haematologica, 2020)

Legend:
[1] = target: mouse CLEC-2 (Fc-mCLEC-2) (Mus musculus, UniProt Q9JL99); assay: biochemical
[2] = target: human CLEC-2 (hFc-CLEC-2) (Homo sapiens, UniProt Q9P126); assay: biochemical
Sequence of human CLEC-2 (hFc-CLEC-2) (Q9P126 55-229 limits assumed): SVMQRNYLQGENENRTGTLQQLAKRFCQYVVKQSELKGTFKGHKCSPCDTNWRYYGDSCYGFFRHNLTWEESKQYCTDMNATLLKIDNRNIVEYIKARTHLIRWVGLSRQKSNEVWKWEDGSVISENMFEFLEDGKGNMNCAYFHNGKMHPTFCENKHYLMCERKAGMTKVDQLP

Sequence of mouse CLEC-2 (Fc-mCLEC-2) (Q9JL99 53-229 limits assumed): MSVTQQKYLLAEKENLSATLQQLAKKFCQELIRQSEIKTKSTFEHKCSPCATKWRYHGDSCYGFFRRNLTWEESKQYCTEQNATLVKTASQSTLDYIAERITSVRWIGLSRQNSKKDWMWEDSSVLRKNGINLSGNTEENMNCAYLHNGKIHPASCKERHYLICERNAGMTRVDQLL

Kd [1]: ~200 nM
Kd [2]: ~200 nM
Structure (SMILES): C=CC1=C(C)C2=Cc3c(C=C)c(C)c4[n]3[Fe]([Cl])[n]3c(c(C)c(CCC(=O)O)c3=CC3=NC(=C4)C(C)=C3CCC(=O)O)=CC1=N2 [hemin]
